Measurements published in patent US20120237651A1 (priority 2002, published 2012).
“And” between values parts separate entries of the source, which are not always exact repeats. Equal entries are not always repeated. Structures can show the parent of a compound that is named as a salt. Where two headings read alike, the source gives them in different places.

Legend:
Fusarium head blight [1] = assay type: in vivo, Wheat (cultivar: Haruyutaka)
DON contamination [2] = assay: Field test, mixed use (2): DON contamination concentration by ELISA (Example 4); assay type: in vivo, Wheat (cultivar: Haruyutaka)
Fusarium graminearum [3] = assay type: cell-based; details: for Ergosterol peak area: day 28 of culture
DON contamination [4] = assay: Field test, mixed use (1): DON contamination concentration by HPLC-UV (Example 3); assay type: in vivo, Wheat (cultivar: Haruyutaka)
Experimental: Wheat (cultivar: Haruyutaka) was seeded on Apr. […] A suspension containing potassium phosphite and various fungicidal agents was prepared in a liquid mixture made up of a spreading agent (Gramine S: supplied from Hokkai Sankyo Co., Ltd.) and water. Using potassium phosphite as the compound A, 0.070% P2O5, and the 0.006 to 0.025% fungicidal agent for agri-horticulture for the wheat as the compound B, water solution containing them was prepared, and 100 L thereof per 10 a was sprayed on leaves in the following growth stages. That is, the first spray (June 24, heading date), the second (June 30, flowering stage), the third (July 9) were performed. The harvest was performed on August 12 (50 days after the heading date) by harvesting the wheat in 3.4 m^2 in each section. […] The DON contamination concentration was analyzed using HPLC-UV method in officially fixed methods shown by the Minister of Health, Labor and Welfare. Quantitative analysis was performed by repeating three times, and the quantitative value was an average value thereof.
Preparation of analysis sample solutions and the analysis procedure are briefly described.
To 50 g of the whole grain powder, 85% acetonitrile was added, vigorously agitated for 30 min, and subsequently sonicated for 10 min.
After eliminating impurities with filter paper, a filtrate was purified using a pretreatment column MultiSep #227 to make a solution for analysis.
The test solution for analysis was injected into high performance liquid chromatography, and DON was detected by ultraviolet rays.

DON contamination [5] = assay: Field test, single use: DON contamination concentration of wheat whole grain powder by ELISA (Example 1); details: for DON concentration: 3 foliar sprays
Experimental: Wheat (cultivar: Haruyutaka) was seeded on Apr. 19, 2002, and cultivated according to a conventional cultivating standard (Hokkaido, Agriculture Department, 1995) to establish test sections with 6.75 m^2 per section (3 repeats). […] That is, the first spray (June 28, flowering date), the second spray (Jul. 8, 10 days after the flowering date, and the third spray (Jul. 18, 20 days after the flowering date) were performed. A conventional control for the purpose of controlling plant pathogens and plant insects was performed together. That is, the first [June 20, azoxystrobin (2000 times dilution)+fenitrothion (1000 times dilution)], the second [tebuconazole (June 28, 2000 times dilution)+sumithione (1000 times dilution)], and the third [July 8, propiconazole (2000 times dilution)+fenitrothion (1000 times dilution)], the forth [July 17, tebuconazole (2000 times dilution)+fenitrothion (1000 times dilution)] were performed. As controls, the test section where only the conventional control was given and the test section without any control were established. Harvest was performed by harvesting the wheat in 4 m^2 in the test sections on August 9 (52 days after the heading date). After the harvest, the wheat was applied on a rice grader with 2.2 mm opening of screen to make selected grains, which were then pulverized by a rapid pulverizer to make whole grain powder. The whole grain powder was used as a sample for analysis. The DON contamination concentration was analyzed by ELISA method using commercially available Rida Screen Fast Don supplied from r-Biopharm.
Preparation of analysis sample solutions and analysis procedure are briefly described.
To 5 g of the whole grain powder, 100 ml of water was added, and vigorously agitated for 10 min to make a DON extract solution.
The DON extract solution was centrifuged at high speed, and the supernatant was used for the ELISA analysis.
According to the method described on ELISA kit, various reagents were added, and subsequently an absorbance of each test solution was measured.
The DON concentration of each test solution was read out from a standard curve made using DON standard solutions.

DON contamination [6] = test system: DON contamination; design: species or system Wheat (cultivar: Haruyutaka); details: in vivo
[7] = test system: Fusarium graminearum having DON production capacity; assay type: cell-based
[8] = test system: Fusarium graminearum having DON production capacity; assay type: cell-based; remark: listed apart in the source
Fusarium head blight [9] = assay type: in vivo, Wheat (cultivar: Haruyutaka); remark: listed apart in the source
Fusarium graminearum [10] = assay type: cell-based; details: potassium phosphite 5.6%; for Ergosterol peak area value: 27° C.
Fusarium head blight [11] = assay type: in vivo, Wheat (cultivar: Haruyutaka); remark: listed apart in the source
[12] = potassium phosphite 0.07% P2O5 alone, no active ingredient B
[13] = potassium phosphite 0.070% in P2O5 alone, no active ingredient B
[14] = active ingredient A 0.038% (as P2O5), conventional control
[15] = active ingredient A 0.070% (as P2O5), conventional control
[16] = active ingredient A 0.112% (as P2O5), conventional control
[17] = active ingredient A 0.112% (as P2O5), no control
[18] = Trifloxystrobin 0.025% mixed with potassium phosphite 0.070% in P2O5
[19] = Trifloxystrobin 0.025%, without potassium phosphite
[20] = Tebuconazole 0.020% mixed with potassium phosphite 0.07% P2O5
[21] = Tebuconazole 0.020% mixed with potassium phosphite 0.070% in P2O5
[22] = Tebuconazole 0.020%, without potassium phosphite
[23] = Metconazole 0.006% mixed with potassium phosphite 0.07% P2O5
[24] = Metconazole 0.006%, without potassium phosphite
[25] = sulfur 0.125% mixed with potassium phosphite 0.070% in P2O5
[26] = sulfur 0.125%, without potassium phosphite
[27] = Kresoxim-methyl 0.021% mixed with potassium phosphite 0.07% P2O5
[28] = Kresoxim-methyl 0.021%, without potassium phosphite
[29] = active ingredient A 0.120% (as P2O5), conventional control
[30] = Iminoctadine acetate 0.025% mixed with potassium phosphite 0.07% P2O5
[31] = Iminoctadine acetate 0.025%, without potassium phosphite
[32] = Propiconazole 0.017% mixed with potassium phosphite 0.07% P2O5
[33] = Propiconazole 0.017% mixed with potassium phosphite 0.070% in P2O5
[34] = Propiconazole 0.017%, without potassium phosphite

potassium phosphite
Incidence rate for panicles (Fusarium head blight [1]; [12]): 4.3% | Number of diseased spikelets/panicle (Fusarium head blight [1]; [12]): 0.050 | DON concentration (DON contamination [2]; [13]): 0.57 ppm | DON contamination amount (DON contamination [2]; single agent treatment with the compound A): at a low level | Ergosterol peak area (Fusarium graminearum [3]; treatment concentration 0.028%): 1810454 | Ergosterol peak area (Fusarium graminearum [3]; treatment concentration 0.056%): 1834861 | Ergosterol peak area (Fusarium graminearum [3]; treatment concentration 0.112%): 1769582 | Ergosterol peak area (Fusarium graminearum [3]; treatment concentration 0.560%): 1921693 | Ergosterol peak area (Fusarium graminearum [3]; treatment concentration 2.800%): 85891 | inhibitory effect on the fungal amount (Fusarium graminearum [3]; water solution of 0.056 to 0.560% potassium phosphite, compared to non-treatment): inhibitory effect on the fungal amount at a moderate degree | inhibitory effect on the fungal amount (Fusarium graminearum [3]; water solution of 2.800% potassium phosphite): remarkable inhibitory effect on the fungal amount | DON concentration (DON contamination [4]; [12]): 0.77 ppm | DON concentration (DON contamination [5]; [14]): 2.41 ppm | DON concentration (DON contamination [5]; [15]): 0.59 ppm | DON concentration (DON contamination [5]; [16]): 0.39 ppm | DON concentration (DON contamination [5]; [17]): 0.69 ppm | DON concentration healthy grain (DON contamination [6]): 0.05 ppm and 0.04 ppm | DON contamination concentration in diseased grains (DON contamination [6]): decreased depending on the given concentration of potassium phosphite | DON [7]: ND. (key: ND.: ND means that the analytical value is less than the detection limit (0.222 ppm) of the ELISA analysis kit.) | DON production [7]: not detected | DON amount [8]: significantly lower than that in the non-treatment | Incidence rate of Fusarium head blight for panicles (Fusarium head blight [9]; [14]): 0.3% | Incidence rate of Fusarium head blight for panicles (Fusarium head blight [9]; [15]): 0.0% | Incidence rate of Fusarium head blight for panicles (Fusarium head blight [9]; [16]): 0.9% | Incidence rate of Fusarium head blight for panicles (Fusarium head blight [9]; [17]): 1.2% | Ergosterol peak area value (Fusarium graminearum [10]; 7 days of culturing): 17952 | Ergosterol peak area value (Fusarium graminearum [10]; 14 days of culturing): 115921 | Ergosterol peak area value (Fusarium graminearum [10]; 21 days of culturing): 372377 | Ergosterol peak area value (Fusarium graminearum [10]; 28 days of culturing): 350972 | amount of ergosterol (indicator of the amount of fungi) (Fusarium graminearum [10]; course over culture): reached a plateau on the 21st day | Incidence rate for panicles (Fusarium head blight [11]; [13]): 10.3% | Number of diseased spikelets/panicle (Fusarium head blight [11]; [13]): 11.0

CON=C(C(=O)OC)c1ccccc1CON=C(C)c1cccc(C(F)(F)F)c1 [Trifloxystrobin]
DON concentration (DON contamination [2]; [18]): 0.12 ppm | DON concentration (DON contamination [2]; [19]): 0.35 ppm | Incidence rate for panicles (Fusarium head blight [11]; [18]): 3.0% | Number of diseased spikelets/panicle (Fusarium head blight [11]; [18]): 3.0 | Incidence rate for panicles (Fusarium head blight [11]; [19]): 4.3% | Number of diseased spikelets/panicle (Fusarium head blight [11]; [19]): 5.0

CC(C)(C)C(O)(CCc1ccc(Cl)cc1)Cn1cncn1 (racemic) [Tebuconazole, (RS)-1-p-chlorophenyl-4,4-dimethyl-3-(1H-1,2,4-triazol-1-ylmethyl)pentan-3-ol]
Incidence rate for panicles (Fusarium head blight [1]; [20]): 1.0% | Number of diseased spikelets/panicle (Fusarium head blight [1]; [20]): 0.010 | DON concentration (DON contamination [2]; [21]): 0.08 ppm | DON concentration (DON contamination [2]; [22]): 0.16 ppm | DON concentration (DON contamination [4]; [20]): 0.38 ppm | DON concentration (DON contamination [4]; [22]): 0.39 ppm | Incidence rate for panicles (Fusarium head blight [11]; [21]): 5.0% | Number of diseased spikelets/panicle (Fusarium head blight [11]; [21]): 5.0

CC1(C)CCC(Cc2ccc(Cl)cc2)C1(O)Cn1cncn1 (racemic) [Metconazole, (1RS,5RS)-5-(4-chlorobenzyl)-2,2-dimethyl-1-(1-H-1,2,4-triazol-1-ylmethyl)cyclopentanol]
Incidence rate for panicles (Fusarium head blight [1]; [23]): 1.0% | Number of diseased spikelets/panicle (Fusarium head blight [1]; [23]): 0.010 | Incidence rate for panicles (Fusarium head blight [1]; [24]): 0.7% | Number of diseased spikelets/panicle (Fusarium head blight [1]; [24]): 0.007 | DON concentration (DON contamination [4]; [23]): 0.10 ppm | DON concentration (DON contamination [4]; [24]): 0.34 ppm

S1SSSSSSS1 [sulfur]
DON concentration (DON contamination [2]; [25]): 0.43 ppm | DON concentration (DON contamination [2]; [26]): 1.85 ppm | Incidence rate for panicles (Fusarium head blight [11]; [25]): 8.7% | Number of diseased spikelets/panicle (Fusarium head blight [11]; [25]): 8.7 | Incidence rate for panicles (Fusarium head blight [11]; [26]): 8.7% | Number of diseased spikelets/panicle (Fusarium head blight [11]; [26]): 10.3

CO/N=C(/C(=O)OC)c1ccccc1COc1ccccc1C [Kresoxim-methyl, methyl=(E)-2-methoxyimino[α-(o-tolyloxy)-o-tolyl]acetate]
Incidence rate for panicles (Fusarium head blight [1]; [27]): 0.7% | Number of diseased spikelets/panicle (Fusarium head blight [1]; [27]): 0.007 | Incidence rate for panicles (Fusarium head blight [1]; [28]): 0.3% | Number of diseased spikelets/panicle (Fusarium head blight [1]; [28]): 0.003 | DON concentration (DON contamination [4]; [27]): 0.51 ppm | DON concentration (DON contamination [4]; [28]): 1.05 ppm

Iminoctadine albesilate
DON concentration (DON contamination [2]; Iminoctadine albesilate 0.030% mixed with potassium phosphite 0.070% in P2O5): 0.00 ppm | DON concentration (DON contamination [2]; Iminoctadine albesilate 0.030%, without potassium phosphite): 0.22 ppm | Incidence rate for panicles (Fusarium head blight [11]; in vivo): 7.3% and 2.7%

potassium phosphate
DON inhibitory effect (DON contamination [5]; Example 1, summary in text): low | DON concentration (DON contamination [5]; [16]): 4.66 ppm | DON concentration diseased grain (DON contamination [6]): 86.9 ppm | DON concentration healthy grain (DON contamination [6]): 0.06 ppm | Incidence rate of Fusarium head blight for panicles (Fusarium head blight [9]; [16]): 0.0%

CCO[PH](=O)O [Fosetyl, aluminium salt (common name: fosetyl) of tris(ethylphosphonate)]
DON concentration (DON contamination [5]; [29]): 0.84 ppm | DON concentration diseased grain (DON contamination [6]): 11.0 ppm | DON concentration healthy grain (DON contamination [6]): 0.96 ppm | Incidence rate of Fusarium head blight for panicles (Fusarium head blight [9]; [29]): 0.0%

CC(=O)O.CC(=O)O.CC(=O)O.NC(N)=NCCCCCCCCNCCCCCCCCN=C(N)N [Iminoctadine acetate, 1,1′-iminodi(octamethylene)diguanidium=triacetate]
Incidence rate for panicles (Fusarium head blight [1]; [30]): 3.0% | Number of diseased spikelets/panicle (Fusarium head blight [1]; [30]): 0.030 | Incidence rate for panicles (Fusarium head blight [1]; [31]): 1.7% | Number of diseased spikelets/panicle (Fusarium head blight [1]; [31]): 0.017 | DON concentration (DON contamination [4]; [30]): 0.20 ppm | DON concentration (DON contamination [4]; [31]): 1.04 ppm

CCCC1COC(Cn2cncn2)(c2ccc(Cl)cc2Cl)O1 (stereo not drawn) [Propiconazole, 1-[2-(2,4-dichlorophenyl)-4-propyl-1,3-dioxolan-2-ylmethyl)-1H-1,2,4-triazole]
Incidence rate for panicles (Fusarium head blight [1]; [32]): 2.7% | Number of diseased spikelets/panicle (Fusarium head blight [1]; [32]): 0.027 | DON concentration (DON contamination [2]; [33]): 0.11 ppm | DON concentration (DON contamination [2]; [34]): 0.57 ppm | DON concentration (DON contamination [4]; [32]): 0.72 ppm | DON concentration (DON contamination [4]; [34]): 1.01 ppm | Incidence rate for panicles (Fusarium head blight [11]; [33]): 4.7% | Number of diseased spikelets/panicle (Fusarium head blight [11]; [33]): 5.0
